Test results taken from PubChem BioAssay (NCI).
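The compound was tested at five concentrations on cells cultured in 96-well plates, with a 48-hour exposure period. TGI marks complete inhibition of growth.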

What was measured:
Assay in all cases: growth of human tumour cells (NCI), 48 h
A549 NSCLC = system: A549 NSCLC
HOP-92 NSCLC = system: HOP-92 NSCLC
SF-268 CNS = system: SF-268 CNS
UACC-62 melanoma = system: UACC-62 melanoma
IGROV1 ovarian = system: IGROV1 ovarian
HT29 colon = system: HT29 colon
PC-3 prostate = system: PC-3 prostate
SK-OV-3 ovarian = system: SK-OV-3 ovarian
OVCAR-4 ovarian = system: OVCAR-4 ovarian
KM12 colon = system: KM12 colon
K-562 leukemia = system: K-562 leukemia
MCF7 breast = system: MCF7 breast
MDA-N = system: MDA-N
SNB-19 CNS = system: SNB-19 CNS
U251 CNS = system: U251 CNS
COLO 205 colon = system: COLO 205 colon
786-0 renal = system: 786-0 renal
BT-549 breast = system: BT-549 breast
OVCAR-8 ovarian = system: OVCAR-8 ovarian
SN12C renal = system: SN12C renal
NCI-H460 lung = system: NCI-H460 lung
ACHN renal = system: ACHN renal
A498 renal = system: A498 renal
MDA-MB-231 breast = system: MDA-MB-231 breast
SK-MEL-2 melanoma = system: SK-MEL-2 melanoma
T-47D breast = system: T-47D breast
HCT-15 colon = system: HCT-15 colon
NCI-H23 lung = system: NCI-H23 lung
HOP-62 NSCLC = system: HOP-62 NSCLC
UO-31 renal = system: UO-31 renal
HCT-116 colon = system: HCT-116 colon
M14 melanoma = system: M14 melanoma
HS 578T breast = system: HS 578T breast
SW-620 colon = system: SW-620 colon
UACC-257 melanoma = system: UACC-257 melanoma
SK-MEL-28 melanoma = system: SK-MEL-28 melanoma
MDA-MB-435 = system: MDA-MB-435
HCC-2998 colon = system: HCC-2998 colon
SF-539 CNS = system: SF-539 CNS
OVCAR-5 ovarian = system: OVCAR-5 ovarian
TK-10 renal = system: TK-10 renal
HL-60(TB) leukemia = system: HL-60(TB) leukemia
OVCAR-3 ovarian = system: OVCAR-3 ovarian
SK-MEL-5 melanoma = system: SK-MEL-5 melanoma
EKVX NSCLC = system: EKVX NSCLC
SF-295 CNS = system: SF-295 CNS
RXF 393 renal = system: RXF 393 renal
NCI/ADR-RES ovarian = system: NCI/ADR-RES ovarian
LOX IMVI melanoma = system: LOX IMVI melanoma
RPMI-8226 leukemia = system: RPMI-8226 leukemia
DU-145 prostate = system: DU-145 prostate
SR leukemia = system: SR leukemia
CAKI-1 renal = system: CAKI-1 renal
NCI-H522 lung = system: NCI-H522 lung
MOLT-4 leukemia = system: MOLT-4 leukemia
CCRF-CEM leukemia = system: CCRF-CEM leukemia
MALME-3M melanoma = system: MALME-3M melanoma
NCI-H226 lung = system: NCI-H226 lung

Work on C=CCSC1=N/C(=C\c2ccc(C)cc2)C(=O)N1CC=C yielded a TGI (A549 NSCLC) of 65.4 µM, a TGI (HOP-92 NSCLC) of 57.5 µM and a TGI (SF-268 CNS) greater than 100 µM. The TGI (UACC-62 melanoma) was greater than 100 µM, the TGI (IGROV1 ovarian) was greater than 100 µM and the TGI (HT29 colon) was 34.1 µM. For the same compound, the TGI (PC-3 prostate) was 70 µM, the TGI (SK-OV-3 ovarian) was greater than 100 µM and the TGI (OVCAR-4 ovarian) was greater than 100 µM. The TGI (KM12 colon) was 69.1 µM, the TGI (K-562 leukemia) was 44.9 µM and the TGI (MCF7 breast) was 55.5 µM. The TGI (MDA-N) was 45.1 µM, the TGI (SNB-19 CNS) was greater than 100 µM and the TGI (U251 CNS) was 57.1 µM. The TGI (COLO 205 colon) was 42 µM, the TGI (786-0 renal) was 58.4 µM and the TGI (BT-549 breast) was 81.6 µM. For the same compound, the TGI (OVCAR-8 ovarian) was greater than 100 µM, the TGI (SN12C renal) was 28.2 µM and the TGI (NCI-H460 lung) was greater than 100 µM. For the same compound, the TGI (ACHN renal) was greater than 100 µM, the TGI (A498 renal) was 51.8 µM and the TGI (MDA-MB-231 breast) was greater than 100 µM. For the same compound, the TGI (SK-MEL-2 melanoma) was 61 µM, the TGI (T-47D breast) was 78.7 µM and the TGI (HCT-15 colon) was greater than 100 µM. It also gave a TGI (NCI-H23 lung) greater than 100 µM, a TGI (HOP-62 NSCLC) greater than 100 µM and a TGI (UO-31 renal) of 84.4 µM. For the same compound, the TGI (HCT-116 colon) was 67.4 µM, the TGI (M14 melanoma) was greater than 100 µM and the TGI (HS 578T breast) was greater than 100 µM. The TGI (SW-620 colon) was greater than 100 µM, the TGI (UACC-257 melanoma) was 59.8 µM and the TGI (SK-MEL-28 melanoma) was greater than 100 µM. For the same compound, the TGI (MDA-MB-435) was 98.8 µM, the TGI (HCC-2998 colon) was 74.3 µM and the TGI (SF-539 CNS) was greater than 100 µM. For the same compound, the TGI (OVCAR-5 ovarian) was greater than 100 µM, the TGI (TK-10 renal) was greater than 100 µM and the TGI (HL-60(TB) leukemia) was 28.1 µM. It also gave a TGI (OVCAR-3 ovarian) greater than 100 µM, a TGI (SK-MEL-5 melanoma) of 27.3 µM and a TGI (EKVX NSCLC) of 34.1 µM. It also gave a TGI (SF-295 CNS) greater than 100 µM, a TGI (RXF 393 renal) of 43.2 µM and a TGI (NCI/ADR-RES ovarian) greater than 100 µM. For the same compound, the TGI (LOX IMVI melanoma) was 82.3 µM, the TGI (RPMI-8226 leukemia) was 31.9 µM and the TGI (DU-145 prostate) was greater than 100 µM. For the same compound, the TGI (SR leukemia) was 29.4 µM, the TGI (CAKI-1 renal) was greater than 100 µM and the TGI (NCI-H522 lung) was greater than 100 µM.

For CC[C@@]1(O)C(=O)OCc2c1cc1n(c2=O)Cc2c-1nc1ccc(N)cc1c2CC[Si](C)(C)C, the TGI (A549 NSCLC) was 0.177 µM, the TGI (HOP-92 NSCLC) was 1.07 µM and the TGI (SF-268 CNS) was 1.76 µM. The TGI (UACC-62 melanoma) was less than 0.0104 µM, the TGI (IGROV1 ovarian) was 0.469 µM and the TGI (HT29 colon) was 11.6 µM. The TGI (PC-3 prostate) was 13.7 µM, the TGI (SK-OV-3 ovarian) was 1.63 µM and the TGI (OVCAR-4 ovarian) was 5.94 µM. It also gave a TGI (KM12 colon) of 3.68 µM, a TGI (K-562 leukemia) greater than 38.2 µM and a TGI (MCF7 breast) of 0.39 µM. The TGI (MOLT-4 leukemia) was less than 0.01 µM, the TGI (MDA-N) was 1.62 µM and the TGI (SNB-19 CNS) was 11.1 µM. It also gave a TGI (U251 CNS) of 0.543 µM, a TGI (COLO 205 colon) of 0.197 µM and a TGI (CCRF-CEM leukemia) of less than 0.01 µM. For the same compound, the TGI (786-0 renal) was less than 0.0276 µM, the TGI (BT-549 breast) was 13.1 µM and the TGI (OVCAR-8 ovarian) was 0.818 µM. It also gave a TGI (SN12C renal) of less than 0.01 µM, a TGI (NCI-H460 lung) of less than 0.013 µM and a TGI (A498 renal) of 0.0189 µM. It also gave a TGI (MDA-MB-231 breast) of 0.428 µM, a TGI (SK-MEL-2 melanoma) of 0.427 µM and a TGI (T-47D breast) of 20.6 µM. For the same compound, the TGI (HCT-15 colon) was 14.2 µM, the TGI (NCI-H23 lung) was less than 0.01 µM and the TGI (HOP-62 NSCLC) was 0.368 µM. For the same compound, the TGI (MALME-3M melanoma) was 0.31 µM, the TGI (UO-31 renal) was less than 0.0173 µM and the TGI (HCT-116 colon) was 2.01 µM. It also gave a TGI (M14 melanoma) of less than 0.0499 µM, a TGI (HS 578T breast) of 27.3 µM and a TGI (SW-620 colon) of 14.6 µM. It also gave a TGI (UACC-257 melanoma) of 0.155 µM, a TGI (SK-MEL-28 melanoma) of 13.8 µM and a TGI (MDA-MB-435) of 4.54 µM. It also gave a TGI (HCC-2998 colon) of 0.103 µM, a TGI (SF-539 CNS) of less than 0.01 µM and a TGI (OVCAR-5 ovarian) of 1 µM. For the same compound, the TGI (NCI-H226 lung) was less than 0.01 µM, the TGI (TK-10 renal) was 3.88 µM and the TGI (HL-60(TB) leukemia) was less than 0.01 µM. It also gave a TGI (OVCAR-3 ovarian) of 0.797 µM, a TGI (SK-MEL-5 melanoma) of less than 0.0222 µM and a TGI (EKVX NSCLC) of 3.23 µM. The TGI (SF-295 CNS) was less than 0.0417 µM, the TGI (RXF 393 renal) was 0.257 µM and the TGI (NCI/ADR-RES ovarian) was 2.02 µM. For the same compound, the TGI (LOX IMVI melanoma) was less than 0.01 µM, the TGI (RPMI-8226 leukemia) was 0.0841 µM and the TGI (DU-145 prostate) was 1.68 µM. For the same compound, the TGI (SR leukemia) was less than 0.01 µM and the TGI (NCI-H522 lung) was 0.127 µM.
